Assay results taken from patent publication US7321074B1, “Melanocortin-3 receptor deficient cells, non-human transgenic animals and methods of selecting compounds which regulate body weight” (Merck & Co., Inc., priority 1999, dated 2008).

Experiment: Peripheral MTII administration: food consumption in MC-3R−/− and WT mice
Settings: single intraperitoneal injection, 10 mg/kg, n=9
Text: Food intake measurements—MC-3R^−/−, MC-3R^+/−, and WT mice were separated into individual microisolator cages at approximately one month of age. For studies involving regular mouse chow (Teklad 7012; 5% fat, 19% protein, and 5% of fiber; 3.75 grams/Kcal and 14.8% Kcal. from fat), pellet food was provided in wire cage tops containing food hoppers and food was weighed weekly. For studies involving a high fat diet (Teklad 97070; 33.5% fat, 27.4% protein, and 26.5% carbohydrates; 60% calories from fat), ground food was provided in a glass jar located in the cage and the jar containing the food was weighed either daily or weekly.
Peripheral MTII administration—For seven consecutive days, individually-housed 23-25-week-old male MC-3R^−/− (n=9) and WT (n=9) mice received an intraperitoneal (ip) injection of a sterile 0.9% NaCl vehicle solution approximately 30 min before the onset of the dark phase of the light cycle. At the same time on the eighth consecutive day of the study, mice received an ip injection of MTII at a dose of 10 mg/kg delivered in vehicle. Body and food (Teklad 7012) weights were measured and recorded daily approximately 15 min prior to injection.

With MTII the “reduction of food consumption over a 24-h period relative to a 2-day vehicle treatment baseline” value (male MC-3R−/− mice) was 16.9±7.0 % reduction and the “reduction of food consumption over a 24-h period relative to a 2-day vehicle treatment baseline” value (male WT mice) was 11.1±4.3 % reduction.
